Patent US20260262643A1, “HERBICIDAL BENZOXAZINES” (FMC CORPORATION, priority 2022, published 2026)

Tests used:
horseweed = assay: Test A postemergence; format: in vivo, Erigeron canadensis; details: postemergence, 10 days; for Horseweed plant response rating: 125 g ai/ha, 0 to 100 scale, 0 no effect, 100 complete control; for Plant response rating, Horseweed: 500 g ai/ha, visual injury, 0 to 100 scale (0 no effect, 100 complete control)
How it was run: (§1)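 Seeds in loam–sand blend received a directed preemergence soil spray of compound in non-phytotoxic solvent with surfactant; postemergence plants (2–10 cm, one- to two-leaf stage) were sprayed with the same formulation. After 10 days in greenhouse, injury was rated visually versus untreated controls, 0 (no effect) to 100 (complete control).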

ryegrass, Italian [1] = assay: Test A postemergence; format: in vivo, Lolium multiflorum; details: postemergence, 10 days; for Ryegrass, Italian plant response rating: 125 g ai/ha, 0 to 100 scale, 0 no effect, 100 complete control; for Plant response rating, Ryegrass, Italian: 500 g ai/ha, visual injury, 0 to 100 scale (0 no effect, 100 complete control)
How it was run: as §1

ragweed [2] = assay: Test A preemergence; format: in vivo, Ambrosia artemisiifolia
How it was run: as §1

galium = assay: Test A postemergence; format: in vivo, Galium aparine; details: postemergence, 10 days
How it was run: as §1

wheat [3] = assay: Test A preemergence; format: in vivo, Triticum aestivum
How it was run: as §1

barnyardgrass = assay: Test B flooded paddy test; format: in vivo, Echinochloa crus-galli; details: 250 g ai/ha, Flood, 13 days, 0 to 100 scale (0 no effect, 100 complete control)
How it was run: (§2)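 Plants at the 2-leaf stage were flooded to 3 cm above the soil, and test compounds were applied directly into the paddy water, with that depth held throughout. After 13 days in a greenhouse, injury was rated visually against untreated controls on a 0–100 scale (100 = complete control).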

goosegrass [4] = assay: Test A preemergence; format: in vivo, Eleusine indica
How it was run: as §1

corn [5] = assay: Test A preemergence; format: in vivo, Zea mays
How it was run: as §1

pigweed, palmer [6] = assay: Test A preemergence; format: in vivo, Amaranthus palmeri
How it was run: as §1

soybean [7] = assay: Test A preemergence; format: in vivo, Glycine max
How it was run: as §1

ryegrass, Italian [8] = assay: Test A preemergence; format: in vivo, Lolium multiflorum
How it was run: as §1

blackgrass [9] = assay: Test A preemergence; format: in vivo, Alopecurus myosuroides
How it was run: as §1

foxtail, giant [10] = assay: Test A postemergence; format: in vivo, Setaria faberi; details: postemergence, 10 days; for Foxtail, Giant plant response rating: 125 g ai/ha, 0 to 100 scale, 0 no effect, 100 complete control; for Plant response rating, Foxtail, Giant: 500 g ai/ha, visual injury, 0 to 100 scale (0 no effect, 100 complete control)
How it was run: as §1

blackgrass [11] = assay: Test A postemergence; format: in vivo, Alopecurus myosuroides; details: postemergence, 10 days; for Blackgrass plant response rating: 125 g ai/ha, 0 to 100 scale, 0 no effect, 100 complete control; for Plant response rating, Blackgrass: 500 g ai/ha, visual injury, 0 to 100 scale (0 no effect, 100 complete control)
How it was run: as §1

wheat [12] = assay: Test A postemergence; format: in vivo, Triticum aestivum; details: postemergence, 10 days; for Wheat plant response rating: 125 g ai/ha, 0 to 100 scale, 0 no effect, 100 complete control; for Plant response rating, Wheat: 500 g ai/ha, visual injury, 0 to 100 scale (0 no effect, 100 complete control)
How it was run: as §1

pigweed, palmer [13] = assay: Test A postemergence; format: in vivo, Amaranthus palmeri; details: postemergence, 10 days; for Pigweed, Palmer plant response rating: 125 g ai/ha, 0 to 100 scale, 0 no effect, 100 complete control; for Plant response rating, Pigweed, Palmer: 500 g ai/ha, visual injury, 0 to 100 scale (0 no effect, 100 complete control)
How it was run: as §1

goosegrass [14] = assay: Test A postemergence; format: in vivo, Eleusine indica; details: postemergence, 10 days; for Goosegrass plant response rating: 125 g ai/ha, 0 to 100 scale, 0 no effect, 100 complete control; for Plant response rating, Goosegrass: 500 g ai/ha, visual injury, 0 to 100 scale (0 no effect, 100 complete control)
How it was run: as §1

soybean [15] = assay: Test A postemergence; format: in vivo, Glycine max; details: postemergence, 10 days; for Soybean plant response rating: 125 g ai/ha, 0 to 100 scale, 0 no effect, 100 complete control; for Plant response rating, Soybean: 500 g ai/ha, visual injury, 0 to 100 scale (0 no effect, 100 complete control)
How it was run: as §1

ducksalad = assay: Test B flooded paddy test; format: in vivo, Heteranthera limosa; details: 250 g ai/ha, Flood, 13 days, 0 to 100 scale (0 no effect, 100 complete control)
How it was run: as §2

rice = assay: Test B flooded paddy test; format: in vivo, Oryza sativa; details: 250 g ai/ha, Flood, 13 days, 0 to 100 scale (0 no effect, 100 complete control)
How it was run: as §2

foxtail, giant [16] = assay: Test A preemergence; format: in vivo, Setaria faberi
How it was run: as §1

ragweed [17] = assay: Test A postemergence; format: in vivo, Ambrosia artemisiifolia; details: postemergence, 10 days; for Ragweed plant response rating: 125 g ai/ha, 0 to 100 scale, 0 no effect, 100 complete control; for Plant response rating, Ragweed: 500 g ai/ha, visual injury, 0 to 100 scale (0 no effect, 100 complete control)
How it was run: as §1

sedge, umbrella = assay: Test B flooded paddy test; format: in vivo, Cyperus difformis; details: 250 g ai/ha, Flood, 13 days, 0 to 100 scale (0 no effect, 100 complete control)
How it was run: as §2

oat, wild [18] = assay: Test A preemergence; format: in vivo, Avena fatua
How it was run: as §1

corn [19] = assay: Test A postemergence; format: in vivo, Zea mays; details: postemergence, 10 days; for Corn plant response rating: 125 g ai/ha, 0 to 100 scale, 0 no effect, 100 complete control; for Plant response rating, Corn: 500 g ai/ha, visual injury, 0 to 100 scale (0 no effect, 100 complete control)
How it was run: as §1

kochia [20] = assay: Test A postemergence; format: in vivo, Bassia scoparia; details: postemergence, 10 days; for Kochia plant response rating: 125 g ai/ha, 0 to 100 scale, 0 no effect, 100 complete control; for Plant response rating, Kochia: 500 g ai/ha, visual injury, 0 to 100 scale (0 no effect, 100 complete control)
How it was run: as §1

oat, wild [21] = assay: Test A postemergence; format: in vivo, Avena fatua; details: postemergence, 10 days; for Oat, Wild plant response rating: 125 g ai/ha, 0 to 100 scale, 0 no effect, 100 complete control; for Plant response rating, Oat, Wild: 500 g ai/ha, visual injury, 0 to 100 scale (0 no effect, 100 complete control)
How it was run: as §1

kochia [22] = assay: Test A preemergence; format: in vivo, Bassia scoparia
How it was run: as §1

[23] = 125 g ai/ha, visual injury after 10 days, 0 to 100 scale, 0 is no effect, 100 is complete control
[24] = 500 g ai/ha, 0 to 100 scale (0 no effect, 100 complete control), 10 days

C[C@H]1CN(C(=O)c2cccc(-n3cnc(CC4CCCCC4)n3)c2)c2cccc(Cl)c2O1 [Compound 90]
Horseweed plant response rating (horseweed): 0 | Plant response rating, Horseweed (horseweed): 0 | Ryegrass, Italian plant response rating (ryegrass, Italian [1]): 0 | Plant response rating, Ryegrass, Italian (ryegrass, Italian [1]): 0 | Plant response rating, Ragweed (ragweed [2]; [23]): 0 | Plant response rating, Ragweed (ragweed [2]; [24]): 0 | Galium plant response rating (galium; 125 g ai/ha, 0 to 100 scale, 0 no effect, 100 complete control): 0 | Plant response rating, Galium (galium; 500 g ai/ha, visual injury, 0 to 100 scale (0 no effect, 100 complete control)): 0 | Plant response rating, Wheat (wheat [3]; [23]): 0 | Plant response rating, Wheat (wheat [3]; [24]): 0 | Plant response rating, Barnyardgrass (barnyardgrass): 0 | Plant response rating, Goosegrass (goosegrass [4]; [23]): 0 | Plant response rating, Goosegrass (goosegrass [4]; [24]): 0 | Plant response rating, Corn (corn [5]; [23]): 0 | Plant response rating, Corn (corn [5]; [24]): 0 | Plant response rating, Pigweed, Palmer (pigweed, palmer [6]; [23]): 0 | Plant response rating, Pigweed, Palmer (pigweed, palmer [6]; [24]): 0 | Plant response rating, Soybean (soybean [7]; [23]): 0 | Plant response rating, Soybean (soybean [7]; [24]): 0 | Plant response rating, Ryegrass, Italian (ryegrass, Italian [8]; [23]): 0 | Plant response rating, Ryegrass, Italian (ryegrass, Italian [8]; [24]): 0 | Plant response rating, Blackgrass (blackgrass [9]; [23]): 0 | Plant response rating, Blackgrass (blackgrass [9]; [24]): 0 | Foxtail, Giant plant response rating (foxtail, giant [10]): 0 | Plant response rating, Foxtail, Giant (foxtail, giant [10]): 0 | Blackgrass plant response rating (blackgrass [11]): 0 | Plant response rating, Blackgrass (blackgrass [11]): 0 | Wheat plant response rating (wheat [12]): 10 | Plant response rating, Wheat (wheat [12]): 10 | Pigweed, Palmer plant response rating (pigweed, palmer [13]): 0 | Plant response rating, Pigweed, Palmer (pigweed, palmer [13]): 50 | Goosegrass plant response rating (goosegrass [14]): 0 | Plant response rating, Goosegrass (goosegrass [14]): 0 | Soybean plant response rating (soybean [15]): 20 | Plant response rating, Soybean (soybean [15]): 20 | Plant response rating, Ducksalad (ducksalad): 0 | Plant response rating, Rice (rice): 0 | Plant response rating, Foxtail, Giant (foxtail, giant [16]; [23]): 0 | Plant response rating, Foxtail, Giant (foxtail, giant [16]; [24]): 0 | Ragweed plant response rating (ragweed [17]): 0 | Plant response rating, Ragweed (ragweed [17]): 0 | Plant response rating, Sedge, Umbrella (sedge, umbrella): 0 | Plant response rating, Oat, Wild (oat, wild [18]; [23]): 0 | Plant response rating, Oat, Wild (oat, wild [18]; [24]): 0 | Corn plant response rating (corn [19]): 0 | Plant response rating, Corn (corn [19]): 0 | Kochia plant response rating (kochia [20]): 0 | Plant response rating, Kochia (kochia [20]): 20 | Oat, Wild plant response rating (oat, wild [21]): 0 | Plant response rating, Oat, Wild (oat, wild [21]): 0

C[C@H]1CN(C(=O)c2cc(Cl)cc(-n3cncn3)c2)c2cccc(Cl)c2O1 [Compound 81]
Horseweed plant response rating (horseweed): 0 | Plant response rating, Horseweed (horseweed): 0 | Ryegrass, Italian plant response rating (ryegrass, Italian [1]): 30 | Plant response rating, Ryegrass, Italian (ryegrass, Italian [1]): 100 | Plant response rating, Ragweed (ragweed [2]; [23]): 0 | Plant response rating, Ragweed (ragweed [2]; [24]): 0 | Plant response rating, Wheat (wheat [3]; [23]): 10 | Plant response rating, Wheat (wheat [3]; [24]): 10 | Plant response rating, Barnyardgrass (barnyardgrass): 0 | Plant response rating, Goosegrass (goosegrass [4]; [23]): 70 | Plant response rating, Goosegrass (goosegrass [4]; [24]): 90 | Plant response rating, Corn (corn [5]; [23]): 0 | Plant response rating, Corn (corn [5]; [24]): 0 | Plant response rating, Pigweed, Palmer (pigweed, palmer [6]; [23]): 30 | Plant response rating, Pigweed, Palmer (pigweed, palmer [6]; [24]): 80 | Plant response rating, Soybean (soybean [7]; [23]): 0 | Plant response rating, Soybean (soybean [7]; [24]): 0 | Plant response rating, Ryegrass, Italian (ryegrass, Italian [8]; [23]): 50 | Plant response rating, Ryegrass, Italian (ryegrass, Italian [8]; [24]): 80 | Plant response rating, Blackgrass (blackgrass [9]; [23]): 30 | Plant response rating, Blackgrass (blackgrass [9]; [24]): 60 | Foxtail, Giant plant response rating (foxtail, giant [10]): 20 | Plant response rating, Foxtail, Giant (foxtail, giant [10]): 90 | Blackgrass plant response rating (blackgrass [11]): 0 | Plant response rating, Blackgrass (blackgrass [11]): 60 | Wheat plant response rating (wheat [12]): 10 | Plant response rating, Wheat (wheat [12]): 20 | Pigweed, Palmer plant response rating (pigweed, palmer [13]): 60 | Plant response rating, Pigweed, Palmer (pigweed, palmer [13]): 90 | Goosegrass plant response rating (goosegrass [14]): 10 | Plant response rating, Goosegrass (goosegrass [14]): 30 | Soybean plant response rating (soybean [15]): 100 | Plant response rating, Soybean (soybean [15]): 100 | Plant response rating, Ducksalad (ducksalad): 0 | Plant response rating, Rice (rice): 0 | Plant response rating, Foxtail, Giant (foxtail, giant [16]; [23]): 20 | Plant response rating, Foxtail, Giant (foxtail, giant [16]; [24]): 90 | Ragweed plant response rating (ragweed [17]): 20 | Plant response rating, Ragweed (ragweed [17]): 20 | Plant response rating, Sedge, Umbrella (sedge, umbrella): 0 | Plant response rating, Oat, Wild (oat, wild [18]; [23]): 50 | Plant response rating, Oat, Wild (oat, wild [18]; [24]): 80 | Corn plant response rating (corn [19]): 0 | Plant response rating, Corn (corn [19]): 50 | Plant response rating, Kochia (kochia [22]; [23]): 0 | Plant response rating, Kochia (kochia [22]; [24]): 30 | Kochia plant response rating (kochia [20]): 50 | Plant response rating, Kochia (kochia [20]): 90 | Oat, Wild plant response rating (oat, wild [21]): 10 | Plant response rating, Oat, Wild (oat, wild [21]): 20
